Experimental data: ChEMBL document CHEMBL1149986, “Topical antiinflammatory dehydroabietylamine derivatives. IV” (Bioorg Med Chem Lett, 1993)

Key:
[1] = target: Phospholipase A2, major isoenzyme (Sus scrofa, UniProt P00592); test: Tested for its inhibitory activity against Phospholipase A2 (PLA2); parameters: species or system Mus musculus
[2] = tested on: Mus musculus; test: Tested for its antiinflammatory activity in the A-23187 (calcium ionophore) ear edema model.; format: functional
[3] = target: T1, Cyclooxygenase (Bos taurus, UniProt O62664+O62698); test: Tested for its inhibitory activity against PGS (prostaglandin synthetase).; format: protein assay
T1 sequence (O62664 whole entry): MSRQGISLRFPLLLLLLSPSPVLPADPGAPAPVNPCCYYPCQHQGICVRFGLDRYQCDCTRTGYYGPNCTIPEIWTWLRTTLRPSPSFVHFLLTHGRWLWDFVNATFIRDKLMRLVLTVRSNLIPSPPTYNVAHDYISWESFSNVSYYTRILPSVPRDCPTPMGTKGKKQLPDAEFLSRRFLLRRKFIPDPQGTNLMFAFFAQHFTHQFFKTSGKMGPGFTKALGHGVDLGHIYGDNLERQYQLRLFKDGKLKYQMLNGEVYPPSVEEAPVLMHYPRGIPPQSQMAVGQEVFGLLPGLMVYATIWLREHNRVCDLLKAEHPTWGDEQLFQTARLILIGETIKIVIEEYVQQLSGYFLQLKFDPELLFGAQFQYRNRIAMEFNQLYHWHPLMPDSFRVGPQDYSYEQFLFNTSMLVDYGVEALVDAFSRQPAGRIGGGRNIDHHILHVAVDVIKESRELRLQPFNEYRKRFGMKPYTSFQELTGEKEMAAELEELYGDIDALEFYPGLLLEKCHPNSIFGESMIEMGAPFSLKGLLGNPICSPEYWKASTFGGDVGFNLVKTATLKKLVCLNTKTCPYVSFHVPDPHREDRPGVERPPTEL
T1 sequence (O62698 whole entry): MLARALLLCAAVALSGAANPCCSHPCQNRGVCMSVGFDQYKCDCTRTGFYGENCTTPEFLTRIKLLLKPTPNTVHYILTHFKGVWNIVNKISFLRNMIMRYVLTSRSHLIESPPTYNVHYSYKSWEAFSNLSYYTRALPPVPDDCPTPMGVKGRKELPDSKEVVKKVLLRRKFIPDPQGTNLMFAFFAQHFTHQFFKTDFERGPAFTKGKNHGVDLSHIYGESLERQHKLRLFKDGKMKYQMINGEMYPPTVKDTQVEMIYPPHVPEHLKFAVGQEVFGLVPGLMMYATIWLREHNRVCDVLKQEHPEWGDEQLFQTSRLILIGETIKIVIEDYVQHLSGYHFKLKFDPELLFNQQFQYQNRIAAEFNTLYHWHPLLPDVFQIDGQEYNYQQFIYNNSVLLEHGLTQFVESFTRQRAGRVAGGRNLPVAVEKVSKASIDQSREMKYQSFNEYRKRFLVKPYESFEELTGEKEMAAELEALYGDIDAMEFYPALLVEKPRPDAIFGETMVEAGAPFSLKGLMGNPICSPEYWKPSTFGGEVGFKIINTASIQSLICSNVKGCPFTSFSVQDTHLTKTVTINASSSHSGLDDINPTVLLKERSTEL

[4] = tested on: Mus musculus; test: Tested for its antiinflammatory activity in the arachidonic acid(AA) induced ear edema model; format: functional
[5] = tested on: Mus musculus; test: Tested for its antiinflammatory activity in the contact sensitive (CS) ear edema model; format: functional
[6] = target: T2, Polyunsaturated fatty acid 5-lipoxygenase (Rattus norvegicus, UniProt P12527); test: Tested for its inhibitory activity against 5-lipoxygenase
T2 sequence (P12527 whole entry): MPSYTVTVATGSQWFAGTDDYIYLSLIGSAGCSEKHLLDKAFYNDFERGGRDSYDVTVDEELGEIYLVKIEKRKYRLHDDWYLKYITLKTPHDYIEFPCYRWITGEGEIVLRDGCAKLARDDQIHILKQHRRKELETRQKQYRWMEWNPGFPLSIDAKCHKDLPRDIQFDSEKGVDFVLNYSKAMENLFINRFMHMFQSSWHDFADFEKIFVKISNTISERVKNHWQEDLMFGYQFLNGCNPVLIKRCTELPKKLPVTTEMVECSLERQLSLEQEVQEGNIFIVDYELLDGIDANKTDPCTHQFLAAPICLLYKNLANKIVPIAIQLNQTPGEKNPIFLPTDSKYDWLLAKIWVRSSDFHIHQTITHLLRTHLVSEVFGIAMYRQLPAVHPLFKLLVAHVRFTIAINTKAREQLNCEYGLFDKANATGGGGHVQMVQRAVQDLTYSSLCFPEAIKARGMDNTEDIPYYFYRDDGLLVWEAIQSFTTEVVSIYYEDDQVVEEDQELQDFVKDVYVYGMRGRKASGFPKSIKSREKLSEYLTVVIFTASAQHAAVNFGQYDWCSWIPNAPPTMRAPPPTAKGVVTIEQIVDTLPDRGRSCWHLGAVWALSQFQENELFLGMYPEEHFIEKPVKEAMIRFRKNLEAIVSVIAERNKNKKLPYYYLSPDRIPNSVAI

[7] = tested on: Mus musculus; test: Tested for its antiinflammatory activity in the tetradecanoyl phorbol acetate induced ear edema model (TPA Ear); format: functional

Sequence of Phospholipase A2, major isoenzyme (P00592 whole entry): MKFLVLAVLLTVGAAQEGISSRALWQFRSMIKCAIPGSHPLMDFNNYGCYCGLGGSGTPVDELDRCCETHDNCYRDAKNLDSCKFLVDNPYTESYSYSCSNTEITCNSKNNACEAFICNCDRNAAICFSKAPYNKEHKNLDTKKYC

SMILES	IC50 [1] [µM]	IC50 [3] [µM]	IC50 [6] [µM]	ED50 [2] [ug ear-1]	ED50 [4] [ug ear-1]	ED50 [5] [ug ear-1]	ED50 [7] [ug ear-1]
CC(N)CCCNC[C@]1(C)CCC[C@]2(C)c3ccc(C(C)C)cc3CCC12.Cl.Cl (stereo partly specified)	5.4	390	1.2	>200	100	>100	18.8
C[C@@H]1C[C@H]2[C@@H]3CCC4=CC(=O)C=C[C@]4(C)[C@@]3(F)[C@@H](O)C[C@]2(C)[C@@]1(O)C(=O)CO [DEXAMETHASONE]	> 750	–	120	0.5	>100	0.7	–
CC(C)c1ccc2c(c1)CC[C@H]1C(C)(CN)CCC[C@]21C.Cl (stereo partly specified)	21	71	8	–	>100	19.8	130.7
CC(C)c1ccc2c(c1)CCC1[C@](C)(CNCC3CCCN3)CCC[C@]21C.Cl.Cl (stereo partly specified)	28	62	–	200	>100	90	18

Further lines, with some results ahead:

IC50 [1] [µM]	IC50 [3] [µM]	IC50 [6] [µM]	SMILES	ED50 [2] [ug ear-1]	ED50 [4] [ug ear-1]	ED50 [5] [ug ear-1]	ED50 [7] [ug ear-1]
100	32.6	–	CCN(CC)CCCC(C)Nc1c2ccc(Cl)cc2nc2ccc(OC)cc12 (stereo unspecified) [QUINACRINE]	>100	>100	–	>100
34.5	220	> 25	CC(C)c1ccc2c(c1)CCC1[C@](C)(CNCc3ccccc3C(=O)O)CCC[C@]21C.Cl (stereo partly specified)	64.1	>100	>100	16
–	–	> 250	COc1ccc2c(c1)c(CC(=O)O)c(C)n2C(=O)c1ccc(Cl)cc1 [INDOMETHACIN]	254	1000	–	–
90.5	124	> 25	CC(=O)NC(CCN(C[C@]1(C)CCC[C@]2(C)c3ccc(C(C)C)cc3CCC12)C(C)=O)c1ccc(F)cc1 (stereo partly specified)	84.7	>100	>100	10
